Experimental data taken from US10433553B2, “Salts of N-(1,3,4-oxadiazol-2-yl) aryl carboxylic acid amides and the use of same as herbicides” (BAYER CROPSCIENCE AKTIENGESELLSCHAFT, priority 2015, dated 2019).
Where two headings read alike, the source gives them in different places.

Tests used:
ZEAMX [1] = conditions: pre-emergence, scored visually after 3 weeks
Procedure: (§1) 1. Pre-Emergence Herbicidal Action Against Harmful Plants
(§2) Seeds of monocotyledonous and dicotyledonous weed plants and crop plants are laid out in wood-fiber pots in sandy loam and covered with soil. […] The comparative tests were conducted by way of example on some weed plants and crop plants.

ABUTH = test: Pre-emergence herbicidal action against harmful plants; type: in vivo, Abutilon theophrasti; conditions: scored visually after 3 weeks
Procedure: as §1, §2

ALOMY [2] = test: as above; type: in vivo; conditions: scored visually after 3 weeks
Procedure: as §1, §2

CYPES = test: as above; type: in vivo; conditions: scored visually after 3 weeks
Procedure: as §1, §2

TRZAS = test: Pre-emergence damage to crop plants; type: in vivo; conditions: dosage 20 g/ha, scored visually after 3 weeks
Description: as §1

STEME = test: Pre-emergence herbicidal action against harmful plants; type: in vivo, Stellaria media; conditions: dosage 20 g/ha, scored visually after 3 weeks
Description: as §1

AMARE = test: Post-emergence herbicidal action against harmful plants; type: in vivo, Amaranthus retroflexus; conditions: dosage 5 g/ha, assessed visually after about 3 weeks
Procedure: (§3) 2. Post-Emergence Herbicidal Action Against Harmful Plants
(§4) Seeds of monocotyledonous and dicotyledonous weed and crop plants are laid out in sandy loam in wood-fiber pots, covered with soil and cultivated in a greenhouse under good growth conditions. 2 to 3 weeks after sowing, the test plants are treated at the one-leaf stage.

ZEAMX [3] = test: Post-emergence damage to crop plants; type: in vivo; conditions: dosage 5 g/ha, assessed visually after about 3 weeks
Procedure: as §3, §4

VERPE = test: Post-emergence herbicidal action against harmful plants; type: in vivo; conditions: dosage 5 g/ha, assessed visually after about 3 weeks
Procedure: as §3, §4

ALOMY [4] = test: as above; type: in vivo; conditions: dosage 5 g/ha, assessed visually after about 3 weeks
Procedure: as §3, §4

[5] = dosage 20 g/ha, 100% = plants have died, 0% = like control plants

SMILES: CCc1nnc([N-]C(=O)c2ccc(S(=O)(=O)CC)c(C3=NOC(COC)C3)c2Cl)o1.[Na+] (stereo not shown)
- Damage to ZEAMX (ZEAMX [1]; dosage 320 g/ha): 0%
- Activity against ABUTH (ABUTH; dosage 320 g/ha): 90%
- Activity against ALOMY (ALOMY [2]; dosage 320 g/ha): 30%
- Activity against CYPES (CYPES; dosage 320 g/ha): 80%

SMILES: Cc1nnc([N-]C(=O)c2ccc(C(F)(F)F)c(S(C)(=O)=O)c2C)o1.[Na+] [drawing 7]
- Damage to TRZAS (TRZAS): 0%
- Activity against ABUTH (ABUTH; [5]): 100%

SMILES: Cc1nnc(NC(=O)c2ccc(C(F)(F)F)c(S(C)(=O)=O)c2C)o1 [drawing 8]
- Activity against ABUTH (ABUTH; [5]): 70%

SMILES: Cc1nnc([N-]C(=O)c2ccc(C(F)(F)F)c(S(C)(=O)=O)c2C)o1.[K+] [drawing 9]
- Damage to TRZAS (TRZAS): 0%
- Activity against STEME (STEME): 90%

SMILES: Cc1nnc(NC(=O)c2ccc(C(F)(F)F)c(S(C)(=O)=O)c2C)o1 [drawing 10, reference compound]
- Activity against STEME (STEME): 70%

SMILES: Cc1nnc(NC(=O)c2ccc(C(F)(F)F)c(S(C)(=O)=O)c2C)o1 [drawing 11]
- Activity against STEME (STEME): 90%

SMILES: Cc1nnc(NC(=O)c2ccc(C(F)(F)F)c(S(C)(=O)=O)c2C)o1 [drawing 12, reference compound]
- Activity against STEME (STEME): 70%

SMILES: Cc1nnc(NC(=O)c2ccc(C(F)(F)F)c(S(C)(=O)=O)c2C)o1 [drawing 13]
- Activity against ABUTH (ABUTH; [5]): 100%

SMILES: Cc1nnc(NC(=O)c2ccc(C(F)(F)F)c(S(C)(=O)=O)c2C)o1 [drawing 14]
- Activity against ABUTH (ABUTH; [5]): 70%

SMILES: Cc1nnc(NC(=O)c2ccc(C(F)(F)F)c(S(C)(=O)=O)c2C)o1 [drawing 15]
- Activity against ABUTH (ABUTH; [5]): 100%

SMILES: Cc1nnc(NC(=O)c2ccc(C(F)(F)F)c(S(C)(=O)=O)c2C)o1 [drawing 16]
- Activity against ABUTH (ABUTH; [5]): 70%

SMILES: Cc1nnc(NC(=O)c2ccc(C(F)(F)F)c(S(C)(=O)=O)c2C)o1 [drawing 17]
- Activity against ABUTH (ABUTH; [5]): 100%

SMILES: Cc1nnc(NC(=O)c2ccc(C(F)(F)F)c(S(C)(=O)=O)c2C)o1 [drawing 18]
- Activity against ABUTH (ABUTH; [5]): 70%

SMILES: Cc1nnc(NC(=O)c2ccc(C(F)(F)F)c(S(C)(=O)=O)c2C)o1 [drawing 19]
- Activity against ABUTH (ABUTH; [5]): 100%

SMILES: Cc1nnc(NC(=O)c2ccc(C(F)(F)F)c(S(C)(=O)=O)c2C)o1 [drawing 20]
- Activity against ABUTH (ABUTH; [5]): 70%

SMILES: Cc1nnc(NC(=O)c2ccc(C(F)(F)F)c(S(C)(=O)=O)c2C)o1 [drawing 21]
- Activity against ABUTH (ABUTH; [5]): 100%

SMILES: Cc1nnc(NC(=O)c2ccc(C(F)(F)F)c(S(C)(=O)=O)c2C)o1 [drawing 22]
- Activity against ABUTH (ABUTH; [5]): 70%

SMILES: Cc1nnc(NC(=O)c2ccc(C(F)(F)F)c(S(C)(=O)=O)c2C)o1 [drawing 23]
- Activity against ABUTH (ABUTH; [5]): 100%
- Activity against ALOMY (ALOMY [2]; dosage 20 g/ha): 70%
- Activity against CYPES (CYPES; dosage 20 g/ha): 70%

SMILES: Cc1nnc(NC(=O)c2ccc(C(F)(F)F)c(S(C)(=O)=O)c2C)o1 [drawing 24]
- Activity against ABUTH (ABUTH; [5]): 70%
- Activity against ALOMY (ALOMY [2]; dosage 20 g/ha): 20%
- Activity against CYPES (CYPES; dosage 20 g/ha): 40%

SMILES: Cc1nnc([N-]C(=O)c2ccc(C(F)(F)F)c(S(C)(=O)=O)c2C)o1.[Na+] [drawing 25]
- Damage to ZEAMX (ZEAMX [1]; dosage 20 g/ha): 0%
- Activity against ALOMY (ALOMY [2]; dosage 20 g/ha): 60%
- Activity against CYPES (CYPES; dosage 20 g/ha): 40%

SMILES: Cc1nnc(NC(=O)c2ccc(C(F)(F)F)c(S(C)(=O)=O)c2C)o1 [drawing 26]
- Activity against ABUTH (ABUTH; [5]): 70%
- Activity against ALOMY (ALOMY [2]; dosage 20 g/ha): 20%
- Activity against CYPES (CYPES; dosage 20 g/ha): 40%

SMILES: Cc1nnc(NC(=O)c2ccc(C(F)(F)F)c(S(C)(=O)=O)c2C)o1 [drawing 27]
- Activity against ABUTH (ABUTH; [5]): 100%
- Activity against ALOMY (ALOMY [2]; dosage 20 g/ha): 60%
- Activity against CYPES (CYPES; dosage 20 g/ha): 60%

SMILES: Cc1nnc(NC(=O)c2ccc(C(F)(F)F)c(S(C)(=O)=O)c2C)o1 [drawing 28]
- Activity against ABUTH (ABUTH; [5]): 70%
- Activity against ALOMY (ALOMY [2]; dosage 20 g/ha): 20%
- Activity against CYPES (CYPES; dosage 20 g/ha): 40%

SMILES: Cc1nnc(NC(=O)c2ccc(C(F)(F)F)c(S(C)(=O)=O)c2C)o1 [drawing 29]
- Activity against ABUTH (ABUTH; [5]): 100%
- Activity against ALOMY (ALOMY [2]; dosage 20 g/ha): 10%
- Activity against CYPES (CYPES; dosage 20 g/ha): 70%

SMILES: Cc1nnc(NC(=O)c2ccc(C(F)(F)F)c(S(C)(=O)=O)c2C)o1 [drawing 30]
- Activity against ABUTH (ABUTH; [5]): 70%
- Activity against ALOMY (ALOMY [2]; dosage 20 g/ha): 20%
- Activity against CYPES (CYPES; dosage 20 g/ha): 40%

SMILES: Cc1nnc(NC(=O)c2ccc(C(F)(F)F)c([S+](C)[O-])c2Cl)o1 (stereo not shown) [drawing 32]
- Activity against ABUTH (ABUTH; [5]): 60%
- Activity against ALOMY (ALOMY [2]; dosage 20 g/ha): 20%
- Activity against CYPES (CYPES; dosage 20 g/ha): 60%

SMILES: Cc1nnc(NC(=O)c2ccc(C(F)(F)F)c([S+](C)[O-])c2Cl)o1 (stereo not shown) [drawing 33]
- Activity against ALOMY (ALOMY [2]; dosage 20 g/ha): 60%

SMILES: Cc1nnc(NC(=O)c2ccc(C(F)(F)F)c([S+](C)[O-])c2Cl)o1 (stereo not shown) [drawing 34]
- Activity against ABUTH (ABUTH; [5]): 60%
- Activity against ALOMY (ALOMY [2]; dosage 20 g/ha): 20%
- Activity against CYPES (CYPES; dosage 20 g/ha): 60%

SMILES: CCc1nnc(NC(=O)c2ccc(S(=O)(=O)CC)c(C3=NOC(COC)C3)c2Cl)o1 (stereo not shown) [drawing 36]
- Activity against ABUTH (ABUTH; dosage 320 g/ha): 90%
- Activity against ALOMY (ALOMY [2]; dosage 320 g/ha): 10%
- Activity against CYPES (CYPES; dosage 320 g/ha): 80%

SMILES: CCc1nnc(NC(=O)c2ccc(S(=O)(=O)CC)c(C3=NOC(COC)C3)c2Cl)o1 (stereo not shown) [drawing 37]
- Damage to ZEAMX (ZEAMX [1]; dosage 320 g/ha): 10%
- Activity against ABUTH (ABUTH; dosage 320 g/ha): 80%
- Activity against ALOMY (ALOMY [2]; dosage 320 g/ha): 20%
- Activity against CYPES (CYPES; dosage 320 g/ha): 100%

SMILES: CCc1nnc(NC(=O)c2ccc(S(=O)(=O)CC)c(C3=NOC(COC)C3)c2Cl)o1 (stereo not shown) [drawing 38]
- Activity against ABUTH (ABUTH; dosage 320 g/ha): 10%
- Activity against ALOMY (ALOMY [2]; dosage 320 g/ha): 10%
- Activity against CYPES (CYPES; dosage 320 g/ha): 80%

SMILES: Cc1nnc([N-]C(=O)c2ccc(C(F)(F)F)c(S(C)(=O)=O)c2C)o1.[Na+] [drawing 39]
- Activity against AMARE (AMARE): 100%
- Damage to ZEAMX (ZEAMX [3]): 0%

SMILES: Cc1nnc(NC(=O)c2ccc(C(F)(F)F)c(S(C)(=O)=O)c2C)o1 [drawing 40, reference compound]
- Activity against AMARE (AMARE): 80%

SMILES: Cc1nnc(NC(=O)c2ccc(C(F)(F)F)c(S(C)(=O)=O)c2C)o1 [drawing 41]
- Activity against AMARE (AMARE): 100%

SMILES: Cc1nnc(NC(=O)c2ccc(C(F)(F)F)c(S(C)(=O)=O)c2C)o1 [drawing 42, reference compound]
- Activity against AMARE (AMARE): 80%

SMILES: Cc1nnc(NC(=O)c2ccc(C(F)(F)F)c(S(C)(=O)=O)c2C)o1 [drawing 43]
- Activity against AMARE (AMARE): 100%

SMILES: Cc1nnc(NC(=O)c2ccc(C(F)(F)F)c(S(C)(=O)=O)c2C)o1 [drawing 44, reference compound]
- Activity against AMARE (AMARE): 80%

SMILES: Cc1nnc(NC(=O)c2ccc(C(F)(F)F)c(S(C)(=O)=O)c2C)o1 [drawing 45]
- Activity against AMARE (AMARE): 100%

SMILES: Cc1nnc(NC(=O)c2ccc(C(F)(F)F)c(S(C)(=O)=O)c2C)o1 [drawing 46, reference compound]
- Activity against AMARE (AMARE): 80%

SMILES: Cc1nnc([N-]C(=O)c2ccc(C(F)(F)F)c(S(C)(=O)=O)c2C)o1.[K+] [drawing 47]
- Activity against AMARE (AMARE): 60%
- Damage to ZEAMX (ZEAMX [3]): 0%

SMILES: Cc1nnc(NC(=O)c2ccc(C(F)(F)F)c(S(C)(=O)=O)c2C)o1 [drawing 48, reference compound]
- Activity against AMARE (AMARE): 40%

SMILES: Cc1nnc(NC(=O)c2ccc(C(F)(F)F)c(S(C)(=O)=O)c2C)o1 [drawing 49]
- Activity against AMARE (AMARE): 60%

SMILES: Cc1nnc(NC(=O)c2ccc(C(F)(F)F)c(S(C)(=O)=O)c2C)o1 [drawing 50, reference compound]
- Activity against AMARE (AMARE): 40%

SMILES: Cc1nnc(NC(=O)c2ccc(C(F)(F)F)c(S(C)(=O)=O)c2C)o1 [drawing 52, reference compound]
- Activity against VERPE (VERPE): 60%
- Activity against ALOMY (ALOMY [4]): 60%

SMILES: Cc1nnc(NC(=O)c2ccc(C(F)(F)F)c(S(C)(=O)=O)c2C)o1 [drawing 53]
- Activity against VERPE (VERPE): 90%
- Activity against ALOMY (ALOMY [4]): 80%

SMILES: Cc1nnc(NC(=O)c2ccc(C(F)(F)F)c(S(C)(=O)=O)c2C)o1 [drawing 54, reference compound]
- Activity against VERPE (VERPE): 60%
- Activity against ALOMY (ALOMY [4]): 60%

SMILES: Cc1nnc(NC(=O)c2ccc(C(F)(F)F)c([S+](C)[O-])c2C)o1 (stereo not shown) [drawing 56, reference compound]
- Activity against VERPE (VERPE): 50%
- Activity against ALOMY (ALOMY [4]): 60%

SMILES: Cc1nnc(NC(=O)c2ccc(C(F)(F)F)c([S+](C)[O-])c2Cl)o1 (stereo not shown) [drawing 57]
- Activity against VERPE (VERPE): 80%

SMILES: Cc1nnc(NC(=O)c2ccc(C(F)(F)F)c([S+](C)[O-])c2C)o1 (stereo not shown) [drawing 58, reference compound]
- Activity against VERPE (VERPE): 50%
- Activity against ALOMY (ALOMY [4]): 60%
